Patent publication US9676758B2, “1-heteroaryl-indoline-4-carboxamides as modulators of GPR52 useful for the treatment or prevention of disorders related thereto” (Arena Pharmaceuticals, Inc., priority 2015, dated 2017)

Experiments:
recombinant GPR52 = biological target: T1, recombinant GPR52 (Homo sapiens, UniProt Q9Y2T5); assay: HTRF cAMP assay for direct cAMP measurement; assay type: cell-based; conditions: mean EC50; CHO-K1 or HEK293 cells stably expressing recombinant GPR52
T1 construct: expressed in transfected cells
T1 sequence (Q9Y2T5 whole entry): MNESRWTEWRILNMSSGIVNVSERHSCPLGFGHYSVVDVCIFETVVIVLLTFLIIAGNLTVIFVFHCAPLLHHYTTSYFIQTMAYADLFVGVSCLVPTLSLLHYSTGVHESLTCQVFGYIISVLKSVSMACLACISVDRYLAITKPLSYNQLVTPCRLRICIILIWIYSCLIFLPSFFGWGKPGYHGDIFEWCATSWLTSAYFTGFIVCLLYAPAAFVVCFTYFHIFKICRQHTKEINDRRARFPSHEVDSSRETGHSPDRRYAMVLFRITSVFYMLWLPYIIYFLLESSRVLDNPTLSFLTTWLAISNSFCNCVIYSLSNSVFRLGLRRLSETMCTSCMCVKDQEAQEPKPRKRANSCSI
Method: HTRF cAMP assays were performed using commercially available assay kits according to the manufacturer's instructions (cAMP Dynamic 2 Assay Kit; #62AM4PEJ, Cisbio Bioassays, Bedford, Mass.). CHO-K1 or HEK293 cells stably expressing recombinant GPR52 were harvested and resuspended in assay buffer (PBS containing 0.5 mM IBMX and 0.1% BSA) at a density of 1.2×10^6 cells per mL. […] Test compounds were solubilized and serially diluted in DMSO using 5-fold dilutions to generate 10-point dose response curves. These serially diluted samples were then further diluted in PBS to achieve a 2× stock. The diluted compounds were transferred to triplicate assay plates (5 μL per well to achieve the 1× final assay concentration). A positive control was included in each assay run. After one-hour incubation at room temperature, 5 μL of cAMP D2 reagent diluted in lysis buffer was added to each well, followed by 5 μL of cryptate reagent. Plates were then incubated at room temperature for one hour prior to reading. Time-resolved fluorescence measurements were collected on an HTRF-capable plate reader (e.g., EnVision® (PerkinElmer, Waltham, Mass.) or PHERAstar (BMG LABTECH, Cary, N.C.)). Counts from the plate reader were fit to the cAMP standard curve included on each plate to determine the amount of cAMP in each test well. Dose-response curves were generated from the cAMP data and analyzed using a nonlinear least squares curve-fitting program to obtain EC50 values.

male C57/BL6 mice = assay: Mouse basal locomotor activity; assay type: in vivo; conditions: po, 10 mg/kg P.O.
Method: To measure basal locomotor activity, male C57/BL6 mice (8-16 weeks) (Jackson Laboratories, Sacramento, Calif.) were transferred in home cages to the testing room approximately 60 minutes prior to testing. Approximately 15 minutes after arrival in the testing room, a dark cycle commenced, with lights turning off and infrared lights turning on for experimenter visibility. Thirty minutes after the lights were turned off, animals were individually weighed and administered either vehicle (20% hydroxypropyl-β-cyclodextrin) Compound 13 (1, 2, 5, 10, or 20 mg/kg P.O.), or another GPR52 agonist (10 mg/kg P.O.) and returned to home cages. Fifteen minutes later, mice were placed into locomotor cages and activity was recorded for 60 minutes.

[1] = Brain penetration (plasma and brain exposure); assay type: in vivo, mouse; conditions: male C57BL6 mice, 60 minute time point
Method: Plasma and brain exposure were evaluated to determine the brain penetration of compounds described herein. Male C57BL6 mice were administered a single per oral (PO) dose of compound at 3 or 10 mg/kg (as a free base) formulated in 20% HPCD in 0.9% NaCl. Blood and brain samples were collected 60 minutes post-dose (n=3-6 animals). Blood was collected via cardiac puncture and stored on ice prior to the separation of plasma by centrifugation. Brains were extracted from the cranium and frozen on dry ice. Tissue samples were stored at approximately −80° C. prior to bioanalytical analysis.
Analyte plasma and brain concentrations were determined by LC/MS/MS.

EC50 (recombinant GPR52)	Brain/Plasma Ratio ([1]; PO dose 10 mg/kg)	Brain/Plasma Ratio ([1]; PO dose 3 mg/kg)	Compound	inhibition at 10 mg/kg (male C57/BL6 mice)
12.2 nM	2.85		O=C(NC[C@@H](F)CO)c1cccc2c1CCN2c1cc(Cc2cc(F)c(F)c(F)c2)ccn1 [Compound 166, (R)—N-(2-Fluoro-3-hydroxypropyl)-1-(4-(3,4,5-trifluorobenzyl)pyridin-2-yl)indoline-4-carboxamide]	70%
			NC(=O)c1cccc2c1CCN2c1cc(Cc2ccc3occc3c2)ccn1 [Compound 106, 1-(4-(Benzofuran-5-ylmethyl)pyridin-2-yl)indoline-4-carboxamide]	81%
			COc1ccc(Cc2ccnc(N3CCc4c(C(=O)NC[C@@H](F)CO)cccc43)c2)cc1F [Compound 202, (R)—N-(2-Fluoro-3-hydroxypropyl)-1-(4-(3-fluoro-4-methoxybenzyl)pyridin-2-yl)indoline-4-carboxamide]	67%
8.87 nM	3.00		O=C(NCCO)c1cccc2c1CCN2c1cc(Cc2cc(F)c(F)c(F)c2)ccn1 [Compound 92, N-(2-Hydroxyethyl)-1-(4-(3,4,5-trifluorobenzyl)pyridin-2-yl)indoline-4-carboxamide]	65%
18.2 nM			COc1ccc(Cc2ccnc(N3CCc4c3ccc(F)c4C(=O)NC[C@@H](F)CO)c2)cc1F [Compound 167, (R)-5-Fluoro-N-(2-fluoro-3-hydroxypropyl)-1-(4-(3-fluoro-4-methoxybenzyl)pyridin-2-yl)indoline-4-carboxamide]	62%
		4.49	NC(=O)c1cccc2c1CCN2c1cc(Cc2cccc(C(F)(F)F)c2)ccn1 [Compound 5, 1-(4-(3-(Trifluoromethyl)benzyl)pyridin-2-yl)indoline-4-carboxamide]	
	1.67		O=C(NCCO)c1c(F)ccc2c1CCN2c1cc(Cc2cccc(C(F)(F)F)c2)ccn1 [Compound 108, 5-Fluoro-N-(2-hydroxyethyl)-1-(4-(3-(trifluoromethyl)benzyl)pyridin-2-yl)indoline-4-carboxamide]	
30.1 nM			O=C(NCCO)c1c(F)ccc2c1CCN2c1cc(Cc2cc(F)c(F)c(F)c2)ccn1 [Compound 140, 5-Fluoro-N-(2-hydroxyethyl)-1-(4-(3,4,5-trifluorobenzyl)pyridin-2-yl)indoline-4-carboxamide]	68%
			NC(=O)c1cccc2c1CCN2c1cc(Cc2ccc(F)c(C(F)(F)F)c2)ccn1 [Compound 61, 1-(4-(4-Fluoro-3-(trifluoromethyl)benzyl)pyridin-2-yl)indoline-4-carboxamide]	61%
	12.40		NC(=O)c1cccc2c1CCN2c1cc(Cc2cc(F)cc(Cl)c2)ccn1 [Compound 42, 1-(4-(3-Chloro-5-fluorobenzyl)pyridin-2-yl)indoline-4-carboxamide]	
9.76 nM	5.45		O=C(NCCO)c1cccc2c1CCN2c1cc(Cc2cc(F)cc(Cl)c2)ccn1 [Compound 43, 1-(4-(3-Chloro-5-fluorobenzyl)pyridin-2-yl)-N-(2-hydroxyethyl)indoline-4-carboxamide]	79%
			COC[C@@H](O)CNC(=O)c1cccc2c1CCN2c1cc(Cc2cc(F)c(F)c(F)c2)ccn1 [Compound 138, (S)—N-(2-Hydroxy-3-methoxypropyl)-1-(4-(3,4,5-trifluorobenzyl)pyridin-2-yl)indoline-4-carboxamide]	72%
	7.76		NC(=O)c1cccc2c1CCN2c1cc(Cc2ccc(F)c(Cl)c2)ccn1 [Compound 58, 1-(4-(3-Chloro-4-fluorobenzyl)pyridin-2-yl)indoline-4-carboxamide]	
11.2 nM	1.36		CC(=O)c1cccc(Cc2ccnc(N3CCc4c(C(N)=O)cccc43)c2)c1 [Compound 78, 1-(4-(3-Acetylbenzyl)pyridin-2-yl)indoline-4-carboxamide]	72%
	0.16		O=C(NC1CCN(CCO)CC1)c1cccc2c1CCN2c1cc(Cc2ccc3c(c2)CCO3)ccn1 [Compound 79, 1-(4-((2,3-Dihydrobenzofuran-5-yl)methyl)pyridin-2-yl)-N-(1-(2-hydroxyethyl)piperidin-4-yl)indoline-4-carboxamide]	
5.57 nM	6.32		COc1ccc(Cc2ccnc(N3CCc4c(C(N)=O)cccc43)c2)cc1F [Compound 54, 1-(4-(3-Fluoro-4-methoxybenzyl)pyridin-2-yl)indoline-4-carboxamide]	66%
3.11 nM	0.87		COc1ccc(Cc2ccnc(N3CCc4c(C(=O)NCCO)cccc43)c2)cc1F [Compound 69, 1-(4-(3-Fluoro-4-methoxybenzyl)pyridin-2-yl)-N-(2-hydroxyethyl)indoline-4-carboxamide]	
3750 nM			CN(C)Cc1cccc(Cc2ccnc(N3CCc4c(C(N)=O)cccc43)c2)c1 [Compound 81, 1-(4-(3-((Dimethylamino)methyl)benzyl)pyridin-2-yl)indoline-4-carboxamide]	
428 nM			NC(=O)c1cccc2c1CCN2c1cc(Sc2cccc(C(F)(F)F)c2)ccn1 [Compound 30, 1-(4-(3-(Trifluoromethyl)phenylthio)pyridin-2-yl)indoline-4-carboxamide]	
106 nM			O=C(N[C@H]1CCOC1)c1cccc2c1CCN2c1cccc(Cc2cccc(C(F)(F)F)c2)n1 [Compound 2, (S)-N-(Tetrahydrofuran-3-yl)-1-(6-(3-(trifluoromethyl)benzyl)pyridin-2-yl)indoline-4-carboxamide]	
5.54 nM			COc1ccc(Cc2ccnc(N3CCc4c(C(=O)NCCF)cccc43)c2)cc1F [Compound 203, 1-(4-(3-fluoro-4-methoxybenzyl)pyridin-2-yl)-N-(2-fluoroethyl)indoline-4-carboxamide]	
18.3 nM			O=C(NCCN1CCNC1=O)c1cccc2c1CCN2c1cc(Cc2cc(F)c(F)c(F)c2)ccn1 [Compound 133, N-(2-(2-Oxoimidazolidin-1-yl)ethyl)-1-(4-(3,4,5-trifluorobenzyl)pyridin-2-yl)indoline-4-carboxamide]	
292 nM			O=C(NC[C@H](O)C(F)(F)F)c1cccc2c1CCN2c1cc(Cc2cc(F)c(F)c(F)c2)ccn1 [Compound 160, (S)-N-(3,3,3-Trifluoro-2-hydroxypropyl)-1-(4-(3,4,5-trifluorobenzyl)pyridin-2-yl)indoline-4-carboxamide]	
			C[C@@H](O)CNC(=O)c1cccc2c1CCN2c1cc(Cc2cc(F)c(F)c(F)c2)ccn1 [Compound 179, (R)—N-(2-Hydroxypropyl)-1-(4-(3,4,5-trifluorobenzyl)pyridin-2-yl)indoline-4-carboxamide]	68%
	4.67		NC(=O)c1cccc2c1CCN2c1cc(Cc2cncc(C(F)(F)F)c2)ccn1 [Compound 47, 1-(4-((5-(Trifluoromethyl)pyridin-3-yl)methyl)pyridin-2-yl)indoline-4-carboxamide]	
